pIC50: −log10 of the molar value. Where two headings read alike, the source gives them in different places. Where a SMILES comes first, the peptide text is derived from it. Where no end group is shown, it is not given here.
Target: T1, PTB domain/c-erbB2 binding (GST-PTB domain of SHC; c-erbB2 from SKBR3 lysate) (Homo sapiens, UniProt P29353)
T1 construct: GST-PTB domain fusion proteins were expressed from recombinant baculovirus in sf9 cells; made in house; host or cells: Sf9 cells (recombinant baculovirus) for GST-PTB; c-erbB2 endogenous in SKBR3 cell lysate
T1 sequence (P29353 156-341): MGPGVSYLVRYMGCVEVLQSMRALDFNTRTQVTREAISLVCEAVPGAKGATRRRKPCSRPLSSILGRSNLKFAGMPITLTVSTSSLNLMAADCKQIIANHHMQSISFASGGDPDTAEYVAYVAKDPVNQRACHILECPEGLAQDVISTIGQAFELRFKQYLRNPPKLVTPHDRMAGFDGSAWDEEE
Assay: biochemical
Details: for block of PTB/c-erbB2 interaction at one peptide concentration, in words: FIG. 2C, 300 nM peptides (legend says 500 nM)

[1] = approximate IC50, inhibition of PTB domain/c-erbB2 binding
[2] = Affinity (IC50), Table 3, ability to block PTB domain/c-erbB2 binding

Compound	pIC50 (Affinity (IC50))	pIC50 (Apparent Inhibition (IC50))	further results
NC(Cc1ccccc1)C(=O)NC(Cc1ccccc1)C(=O)O (stereo not shown)	–	–	pIC50 (Table 3, ability to block PTB domain/c-erbB2 binding, read-out: Affinity (IC50)): < 4.52
CC(C)C[C@H](NC(=O)[C@H](CC(N)=O)NC(=O)[C@H](CC(=O)O)NC(=O)[C@H](Cc1ccccc1)NC(=O)[C@H](C)N)C(=O)N[C@@H](Cc1ccc(OP(=O)(O)O)cc1)C(=O)N[C@@H](Cc1ccc(OP(=O)(O)O)cc1)C(=O)N[C@@H](Cc1c[nH]c2ccccc12)C(=O)N[C@@H](CC(=O)O)C(=O)N[C@@H](CCC(N)=O)C(=O)N[C@@H](CC(N)=O)C(=O)N[C@@H](CO)C(=O)O [AFDNL (pY) (pY) WDQNS, AFDNL(pY)(pY)WDQNS] (HELM PEPTIDE1{A.F.D.N.L.[O=C([C@H](Cc1ccc(OP(=O)(O)O)cc1)N[*:1])[*:2]].[O=C([C@H](Cc1ccc(OP(=O)(O)O)cc1)N[*:1])[*:2]].W.D.Q.N.S}$$$$V2.0)	7.52	–	–
CC(C)C[C@H](NC(=O)[C@H](CC(N)=O)NC(=O)[C@H](CC(=O)O)NC(=O)[C@H](Cc1ccccc1)NC(=O)[C@H](C)N)C(=O)N[C@@H](Cc1ccc(OP(=O)(O)O)cc1)C(=O)N[C@@H](Cc1ccc(O)cc1)C(=O)N[C@@H](Cc1c[nH]c2ccccc12)C(=O)N[C@@H](CC(=O)O)C(=O)N[C@@H](CCC(N)=O)C(=O)N[C@@H](CC(N)=O)C(=O)N[C@@H](CO)C(=O)O [AFDNL (pY) YWDQNS, AFDNL(pY)YWDQNS] (HELM PEPTIDE1{A.F.D.N.L.[O=C([C@H](Cc1ccc(OP(=O)(O)O)cc1)N[*:1])[*:2]].Y.W.D.Q.N.S}$$$$V2.0; N-terminus and C-terminus assumed)	6.00	–	fold less effective in competition: 30 fold; inhibition of / competition for PTB domain/c-erbB2 binding, in words: strong inhibition; block of PTB/c-erbB2 interaction at one peptide concentration, in words: some inhibition
CC(C)C[C@H](NC(=O)[C@H](CC(N)=O)NC(=O)[C@H](CC(=O)O)NC(=O)[C@H](Cc1ccccc1)NC(=O)[C@H](C)N)C(=O)N[C@@H](Cc1ccc(O)cc1)C(=O)N[C@@H](Cc1ccc(OP(=O)(O)O)cc1)C(=O)N[C@@H](Cc1c[nH]c2ccccc12)C(=O)N[C@@H](CC(=O)O)C(=O)N[C@@H](CCC(N)=O)C(=O)N[C@@H](CC(N)=O)C(=O)N[C@@H](CO)C(=O)O [AFDNLY (pY) WDQNS, AFDNLY(pY)WDQNS] (HELM PEPTIDE1{A.F.D.N.L.Y.[O=C([C@H](Cc1ccc(OP(=O)(O)O)cc1)N[*:1])[*:2]].W.D.Q.N.S}$$$$V2.0; N-terminus and C-terminus assumed)	7.52	7.52	IC50 compared with that of AFDNL(pY)(pY)WDQNS, in words: approximately equal; block of PTB/c-erbB2 interaction at one peptide concentration, in words: completely block; pIC50 [1]: ~7.52
CC(C)C[C@H](NC(=O)[C@H](Cc1ccc(OP(=O)(O)O)cc1)NC(=O)[C@H](CCC(=O)O)NC(=O)[C@@H]1CCCN1C(=O)[C@H](CC(N)=O)NC(=O)[C@H](CCC(=O)O)NC(=O)[C@@H](NC(=O)[C@H](C)NC(=O)CNC(=O)CNC(=O)[C@H](Cc1ccccc1)NC(=O)[C@H](C)N)C(C)C)C(=O)N[C@@H](C)C(=O)N1CCC[C@H]1C(=O)N[C@@H](CCCNC(=N)N)C(=O)N[C@@H](C)C(=O)NCC(=O)N[C@H](C(=O)N[C@@H](C)C(=O)N[C@@H](CO)C(=O)N[C@@H](CCC(N)=O)C(=O)O)[C@@H](C)O [AFGGAVENPE (pY) LAPRAGTASQ, AFGGAVENPE(pY)LAPRAGTASQ] (HELM PEPTIDE1{A.F.G.G.A.V.E.N.P.E.[O=C([C@H](Cc1ccc(OP(=O)(O)O)cc1)N[*:1])[*:2]].L.A.P.R.A.G.T.A.S.Q}$$$$V2.0)	–	6.00	pIC50 [1]: ~6.00
CC(C)C[C@H](NC(=O)[C@@H]1CCCN1C(=O)[C@H](C)N)C(=O)N[C@@H](C)C(=O)N[C@@H](CS)C(=O)N[C@@H](CO)C(=O)N1CCC[C@H]1C(=O)N[C@@H](CCC(N)=O)C(=O)N1CCC[C@H]1C(=O)N[C@@H](CCC(=O)O)C(=O)N[C@@H](Cc1ccc(OP(=O)(O)O)cc1)C(=O)N[C@H](C(=O)N[C@@H](CC(N)=O)C(=O)N[C@@H](CCC(N)=O)C(=O)N1CCC[C@H]1C(=O)N[C@@H](CCC(=O)O)C(=O)N[C@H](C(=O)N[C@@H](CCCNC(=N)N)C(=O)N1CCC[C@H]1C(=O)N[C@@H](CCC(N)=O)C(=O)N[C@@H](CO)C(=O)O)C(C)C)C(C)C [APLACSPQPE (pY) VNQPEVRPQS, APLACSPQPE(pY)VNQPEVRPQS] (HELM PEPTIDE1{A.P.L.A.C.S.P.Q.P.E.[O=C([C@H](Cc1ccc(OP(=O)(O)O)cc1)N[*:1])[*:2]].V.N.Q.P.E.V.R.P.Q.S}$$$$V2.0)	–	< 4.00	–
CC(C)C[C@H](NC(=O)[C@H](CCC(N)=O)NC(=O)[C@H](CC(N)=O)NC(=O)[C@H](CCC(N)=O)NC(=O)[C@H](CO)NC(=O)[C@H](Cc1ccc(OP(=O)(O)O)cc1)NC(=O)[C@H](Cc1c[nH]c2ccccc12)NC(=O)[C@H](CO)NC(=O)[C@@H](N)CC(=O)O)C(=O)N[C@@H](Cc1ccccc1)C(=O)N[C@@H](CC(=O)O)C(=O)N[C@@H](CO)C(=O)N[C@@H](Cc1ccccc1)C(=O)N[C@@H](C)C(=O)N1CCC[C@H]1C(=O)N[C@@H](CCC(=O)O)C(=O)NCC(=O)N[C@@H](Cc1ccc(OP(=O)(O)O)cc1)C(=O)N1CCC[C@H]1C(=O)N[C@@H](C)C(=O)N[C@@H](CC(N)=O)C(=O)O [DSW (pY) SQNQLFDSFAPEG (pY) PAN] (HELM PEPTIDE1{D.S.W.[O=C([C@H](Cc1ccc(OP(=O)(O)O)cc1)N[*:1])[*:2]].S.Q.N.Q.L.F.D.S.F.A.P.E.G.[O=C([C@H](Cc1ccc(OP(=O)(O)O)cc1)N[*:1])[*:2]].P.A.N}$$$$V2.0)	< 4.52	–	–
CC(C)C[C@H](NC(=O)[C@H](CCC(N)=O)NC(=O)[C@H](CC(N)=O)NC(=O)[C@H](CCC(N)=O)NC(=O)[C@H](CC(=O)O)NC(=O)[C@H](Cc1c[nH]c2ccccc12)NC(=O)[C@H](CO)NC(=O)[C@@H](N)CC(=O)O)C(=O)N[C@@H](Cc1ccccc1)C(=O)N[C@@H](CO)C(=O)N[C@@H](Cc1ccc(OP(=O)(O)O)cc1)C(=O)N[C@@H](Cc1ccc(OP(=O)(O)O)cc1)C(=O)N[C@@H](CO)C(=O)N[C@@H](Cc1ccccc1)C(=O)N[C@@H](C)C(=O)N1CCC[C@H]1C(=O)N[C@@H](CCC(=O)O)C(=O)NCC(=O)N1CCC[C@H]1C(=O)N[C@@H](C)C(=O)N[C@@H](CC(N)=O)C(=O)O [DSWDQNQLFS (pY) (pY) SFAPEGPAN] (HELM PEPTIDE1{D.S.W.D.Q.N.Q.L.F.S.[O=C([C@H](Cc1ccc(OP(=O)(O)O)cc1)N[*:1])[*:2]].[O=C([C@H](Cc1ccc(OP(=O)(O)O)cc1)N[*:1])[*:2]].S.F.A.P.E.G.P.A.N}$$$$V2.0)	< 4.52	–	–
CC(C)C[C@H](NC(=O)CNC(=O)[C@H](CC(C)C)NC(=O)[C@H](Cc1ccc(OP(=O)(O)O)cc1)NC(=O)[C@H](CCC(=O)O)NC(=O)[C@@H]1CCCN1C(=O)[C@H](CC(N)=O)NC(=O)[C@H](CCC(=O)O)NC(=O)[C@H](C)NC(=O)[C@@H](NC(=O)[C@@H]1CCCN1C(=O)[C@@H](NC(=O)CNC(=O)[C@@H](N)CCC(=O)O)[C@@H](C)O)[C@@H](C)O)C(=O)N[C@@H](CC(=O)O)C(=O)N[C@H](C(=O)N1CCC[C@H]1C(=O)N[C@H](C(=O)O)C(C)C)C(C)C [EGTPTAENPE (pY) LGLDVPV, EGTPTAENPE(pY)LGLDVPV] (HELM PEPTIDE1{E.G.T.P.T.A.E.N.P.E.[O=C([C@H](Cc1ccc(OP(=O)(O)O)cc1)N[*:1])[*:2]].L.G.L.D.V.P.V}$$$$V2.0)	–	6.00	pIC50 [1]: ~6.00
CC(C)C[C@H](NC(=O)[C@H](CC(N)=O)NC(=O)[C@H](CC(=O)O)NC(=O)[C@H](Cc1ccccc1)NC(=O)[C@H](C)NC(=O)[C@@H]1CCCN1C(=O)[C@H](CO)NC(=O)[C@H](Cc1ccccc1)NC(=O)[C@H](C)NC(=O)[C@@H]1CCCN1)C(=O)N[C@@H](COP(=O)(O)O)C(=O)N[C@@H](COP(=O)(O)O)C(=O)N[C@@H](Cc1c[nH]c2ccccc12)C(=O)N[C@@H](CC(=O)O)C(=O)N[C@@H](CCC(N)=O)C(=O)N[C@@H](CC(N)=O)C(=O)N[C@@H](CO)C(=O)N[C@@H](CO)C(=O)N[C@@H](CCC(=O)O)C(=O)N[C@@H](CCC(N)=O)C(=O)NCC(=O)O [PAFSPAFDNL (pS) (pS) WDQNSSEQG] (HELM PEPTIDE1{P.A.F.S.P.A.F.D.N.L.[O=C([C@H](COP(=O)(O)O)N[*:1])[*:2]].[O=C([C@H](COP(=O)(O)O)N[*:1])[*:2]].W.D.Q.N.S.S.E.Q.G}$$$$V2.0)	–	–	pIC50 [2]: < 4.52
CC(C)C[C@H](NC(=O)[C@@H]1CCCN1C(=O)[C@H](CC(C)C)NC(=O)[C@@H](NC(=O)[C@@H]1CCCN1C(=O)[C@H](CC(=O)O)NC(=O)[C@H](CCC(=O)O)NC(=O)[C@H](CO)NC(=O)[C@H](Cc1ccc(OP(=O)(O)O)cc1)NC(=O)[C@H](CCCNC(=N)N)NC(=O)[C@H](CCC(N)=O)NC(=O)[C@H](CC(C)C)NC(=O)[C@@H]1CCCN1C(=O)[C@H](CO)NC(=O)[C@H](CC(C)C)NC(=O)[C@H](CC(=O)O)NC(=O)[C@H](Cc1c[nH]cn1)NC(=O)[C@@H]1CCCN1C(=O)[C@@H](N)CO)[C@@H](C)O)C(=O)O [SPHDLSPLQR (pY) SEDPTLPL] (HELM PEPTIDE1{S.P.H.D.L.S.P.L.Q.R.[O=C([C@H](Cc1ccc(OP(=O)(O)O)cc1)N[*:1])[*:2]].S.E.D.P.T.L.P.L}$$$$V2.0)	–	< 4.00	–
CC(C)C[C@H](NC(=O)[C@@H]1CCCN1C(=O)[C@H](C)NC(=O)[C@@H](NC(=O)[C@H](Cc1ccc(OP(=O)(O)O)cc1)NC(=O)CNC(=O)[C@H](CC(=O)O)NC(=O)[C@@H](NC(=O)[C@H](CCC(=O)O)NC(=O)[C@@H]1CCCN1C(=O)[C@@H]1CCCN1C(=O)[C@H](CC(C)C)NC(=O)[C@@H]1CCCN1C(=O)[C@H](CC(C)C)NC(=O)[C@@H](N)[C@@H](C)O)[C@@H](C)O)C(C)C)C(=O)N[C@@H](C)C(=O)N[C@@H](CS)C(=O)N[C@@H](CO)C(=O)N1CCC[C@H]1C(=O)N[C@@H](CCC(N)=O)C(=O)O [TLPLPPETDG (pY) VAPLACSPQ, TLPLPPETDG(pY)VAPLACSPQ] (HELM PEPTIDE1{T.L.P.L.P.P.E.T.D.G.[O=C([C@H](Cc1ccc(OP(=O)(O)O)cc1)N[*:1])[*:2]].V.A.P.L.A.C.S.P.Q}$$$$V2.0)	–	< 4.00	–
PAFSPAFDNLEEWDQNSSEQG	–	–	pIC50 [2]: < 4.52

Reference: patent US20020156236A1, “Binding sites for phosphotyrosine binding domains” (priority 1995, published 2002)
